Earlier results, collected in patent publication US9321030B2, “Clay-containing thin films as carriers of absorbed molecules” (priority 2012, dated 2016).

Experiments:
[1] = tested on: Pseudomonas aeruginosa biofilms
[2] = tested on: multi-drug resistant strains of gram-positive and gram-negative bacteria; settings: clinically relevant multi-drug resistant strains
[3] = tested on: Mycobacterium tuberculosis
S. aureus ATCC 12600 = settings: known value

Substance	activity against biofilms [1]	efficacy against planktonic cells [2]	activity [3]	minimum inhibitory concentration (S. aureus ATCC 12600) [µg/mL]
H—(NLys-Nspe-Nspe)4-NH2 [Peptoid 1]	active	demonstrated efficacy	active	–
gentamicin	–	–	–	1
